Experimental data: patent US10266497B2 (ABIDE THERAPEUTICS, INC., priority 2017, dated 2019)
Blank lines part the entries; values can stand above or below the compound they belong to.

Tests used:
[1] = target: T1, FAAH (Homo sapiens, UniProt O00519); experiment: In vitro competitive activity-based protein profiling, FAAH, human; conditions: for inhibition at 1 µM: read-out: FAAH % inh. 1 μM (human)
T1 sequence (O00519 1-579): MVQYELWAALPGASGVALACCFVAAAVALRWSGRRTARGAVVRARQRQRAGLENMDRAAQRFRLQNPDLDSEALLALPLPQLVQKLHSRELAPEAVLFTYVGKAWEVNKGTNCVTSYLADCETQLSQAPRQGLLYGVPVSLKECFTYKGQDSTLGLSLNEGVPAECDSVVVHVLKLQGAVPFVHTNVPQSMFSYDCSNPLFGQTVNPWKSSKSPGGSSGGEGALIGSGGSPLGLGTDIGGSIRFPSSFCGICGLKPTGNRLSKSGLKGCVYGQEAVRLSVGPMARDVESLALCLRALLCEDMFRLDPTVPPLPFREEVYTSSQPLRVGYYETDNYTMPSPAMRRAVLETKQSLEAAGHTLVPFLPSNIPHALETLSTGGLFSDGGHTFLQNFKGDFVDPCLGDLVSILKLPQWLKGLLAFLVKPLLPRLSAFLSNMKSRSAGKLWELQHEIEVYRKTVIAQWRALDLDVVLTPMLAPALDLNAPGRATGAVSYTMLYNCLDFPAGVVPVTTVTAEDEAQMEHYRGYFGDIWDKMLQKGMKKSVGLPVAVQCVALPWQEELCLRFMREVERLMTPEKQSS
Method: (§1) Biological Evaluation In Vitro Competitive Activity-Based Protein Profiling.
(§2) Proteomes (mouse brain membrane fraction for mouse assays; human prefrontal cortex membrane fractions for human assays) (50 mL, 1.0 mg/mL total protein concentration) were preincubated with varying concentrations of inhibitors at 37° C. After 30 min, FP-Rh (1.0 mL, 50 mM in DMSO) was added and the mixture was incubated for another 30 min at 37° C. Reactions were quenched with SDS loading buffer (15 μL—4λ) and run on SDS-PAGE.

[2] = target: T2, MAGL (Mus musculus, UniProt O35678); experiment: In vitro competitive activity-based protein profiling, MAGL, mouse; conditions: read-out: MAGL % inh. 1 μM (mouse)
T2 sequence (O35678 1-303): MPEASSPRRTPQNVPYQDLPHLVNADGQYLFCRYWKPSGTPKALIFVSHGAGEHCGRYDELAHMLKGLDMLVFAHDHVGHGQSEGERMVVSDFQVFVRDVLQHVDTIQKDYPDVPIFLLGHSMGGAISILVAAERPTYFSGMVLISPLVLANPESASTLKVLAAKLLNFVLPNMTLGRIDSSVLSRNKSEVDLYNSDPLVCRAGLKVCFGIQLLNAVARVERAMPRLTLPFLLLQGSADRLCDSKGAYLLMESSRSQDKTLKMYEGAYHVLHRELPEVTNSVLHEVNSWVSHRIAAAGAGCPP
Method: as §1, §2

[3] = target: T3, FAAH (Mus musculus, UniProt O08914); experiment: In vitro competitive activity-based protein profiling, FAAH, mouse; conditions: read-out: FAAH % inh. 1 μM (mouse)
T3 sequence (O08914 1-579): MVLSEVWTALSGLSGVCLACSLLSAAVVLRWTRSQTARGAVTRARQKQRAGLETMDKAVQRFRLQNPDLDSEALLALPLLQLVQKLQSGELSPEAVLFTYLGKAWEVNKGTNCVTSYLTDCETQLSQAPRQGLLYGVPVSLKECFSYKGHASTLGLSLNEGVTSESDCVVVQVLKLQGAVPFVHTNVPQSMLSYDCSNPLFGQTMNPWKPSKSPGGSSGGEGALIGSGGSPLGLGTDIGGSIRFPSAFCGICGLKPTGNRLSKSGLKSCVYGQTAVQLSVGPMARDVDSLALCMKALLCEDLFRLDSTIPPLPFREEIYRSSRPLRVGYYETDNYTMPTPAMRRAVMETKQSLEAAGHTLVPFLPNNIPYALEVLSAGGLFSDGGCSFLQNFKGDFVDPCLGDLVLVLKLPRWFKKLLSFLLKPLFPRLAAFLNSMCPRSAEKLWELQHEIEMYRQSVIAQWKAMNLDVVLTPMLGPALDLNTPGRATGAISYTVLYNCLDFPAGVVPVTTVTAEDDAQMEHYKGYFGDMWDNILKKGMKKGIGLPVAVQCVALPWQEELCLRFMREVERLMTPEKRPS
Method: as §1, §2

[4] = target: T4, MAGL (Homo sapiens, UniProt Q99685); experiment: In vitro competitive activity-based protein profiling, MAGL, human; conditions: for inhibition at 1 µM: read-out: MAGL % inh. 1 μM (human)
T4 sequence (Q99685 1-303): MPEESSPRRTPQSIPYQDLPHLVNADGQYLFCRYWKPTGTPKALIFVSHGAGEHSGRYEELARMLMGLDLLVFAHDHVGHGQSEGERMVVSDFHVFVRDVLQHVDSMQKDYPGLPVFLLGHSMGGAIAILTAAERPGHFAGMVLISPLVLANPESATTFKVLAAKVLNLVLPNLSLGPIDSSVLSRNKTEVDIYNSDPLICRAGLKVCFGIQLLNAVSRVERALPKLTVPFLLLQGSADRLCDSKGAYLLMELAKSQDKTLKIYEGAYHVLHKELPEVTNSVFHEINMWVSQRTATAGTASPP

IC50 [1]: 100 to 1000 nM
inhibition at 1 µM [1]: > 75%
inhibition at 1 µM [2]: > 75%
inhibition at 1 µM [3]: > 75%
inhibition at 1 µM [4]: > 75%
Structure (SMILES): O=C(O)c1ccn(C(=O)N2CCN(Cc3cc(Cl)cc(Oc4ccc(Cl)cc4)c3)CC2)n1 [Example 19, 1-(4-(3-Chloro-5-(4-chlorophenoxy)benzyl)piperazine-1-carbonyl)-1H-pyrazole-3-carboxylic Acid]

IC50 [1]: 1000 to 10000 nM
inhibition at 1 µM [1]: > 75%
inhibition at 1 µM [2]: > 75%
inhibition at 1 µM [3]: > 75%
IC50 [4]: 100 to 1000 nM
inhibition at 1 µM [4]: > 75%
Structure (SMILES): O=C(O)c1nn(C(=O)N2CC3CN(Cc4ccc(-c5cnc6ccccn56)cc4C(F)(F)F)CC3C2)cc1Cl (stereo not shown) [Example 20, 4-Chloro-1-(5-(4-(imidazo[1,2-a]pyridin-3-yl)-2-(trifluoromethyl)benzyl)octahydropyrrolo[3,4-c]pyrrole-2-carbonyl)-1H-pyrazole-3-carboxylic Acid]

inhibition at 1 µM [1]: 0 to 25%
inhibition at 1 µM [2]: > 75%
inhibition at 1 µM [3]: 0 to 25%
inhibition at 1 µM [4]: > 75%
Structure (SMILES): CN(Cc1ccc(Cl)c(N2CCCC2)c1)C1(C)CCN(C(=O)n2ccc(C(=O)O)n2)CC1 [Example 39, 1-(4-((4-chloro-3-(pyrrolidin-1-yl)benzyl)(methyl)amino)-4-methylpiperidine-1-carbonyl)-1H-pyrazole-3-carboxylic acid]

IC50 [1]: 100 to 1000 nM
inhibition at 1 µM [1]: > 75%
inhibition at 1 µM [2]: > 75%
inhibition at 1 µM [3]: 0 to 25%
IC50 [4]: 100 to 1000 nM
inhibition at 1 µM [4]: > 75%
Structure (SMILES): O=C(O)c1ccn(C(=O)N2CCC(OCc3cc(F)cc(Cl)c3)CC2)n1 [Example 42, 1-(4-((3-chloro-5-fluorobenzyl)oxy)piperidine-1-carbonyl)-1H-pyrazole-3-carboxylic acid]

inhibition at 1 µM [1]: 0 to 25%
inhibition at 1 µM [2]: > 75%
inhibition at 1 µM [3]: 0 to 25%
inhibition at 1 µM [4]: > 75%
Structure (SMILES): O=C(O)c1ccn(C(=O)N2CCC3(CCN(Cc4cc(Cl)cc(N5CCCC5)c4)C3)CC2)n1 [Example 44, 1-(2-(3-chloro-5-(pyrrolidin-1-yl)benzyl)-2,8-diazaspiro[4.5]decane-8-carbonyl)-1H-pyrazole-3-carboxylic acid]

IC50 [1]: 100 to 1000 nM
inhibition at 1 µM [1]: > 75%
inhibition at 1 µM [2]: > 75%
inhibition at 1 µM [3]: > 75%
inhibition at 1 µM [4]: > 75%
Structure (SMILES): O=C(O)c1ccn(C(=O)N2CCN(Cc3ccc(Oc4ccc(Cl)cc4)cc3)CC2)n1 [Example 45, 1-(4-(4-(4-chlorophenoxy)benzyl)piperazine-1-carbonyl)-1H-pyrazole-3-carboxylic acid]

inhibition at 1 µM [1]: 0 to 25%
inhibition at 1 µM [2]: > 75%
inhibition at 1 µM [3]: 0 to 25%
inhibition at 1 µM [4]: > 75%
Structure (SMILES): CN(Cc1ccc(Cl)cc1N1CCCC1)C1(C)CCN(C(=O)n2ccc(C(=O)O)n2)CC1 [Example 46, 1-(4-((4-chloro-2-(pyrrolidin-1-yl)benzyl)(methyl)amino)-4-methylpiperidine-1-carbonyl)-1H-pyrazole-3-carboxylic acid]

inhibition at 1 µM [1]: 0 to 25%
inhibition at 1 µM [2]: > 75%
inhibition at 1 µM [3]: 0 to 25%
inhibition at 1 µM [4]: > 75%
Structure (SMILES): CN(Cc1cccc(Cl)c1N1CCCC1)C1(C)CCN(C(=O)n2ccc(C(=O)O)n2)CC1 [Example 47, 1-(4-((3-chloro-2-(pyrrolidin-1-yl)benzyl)(methyl)amino)-4-methylpiperidine-1-carbonyl)-1H-pyrazole-3-carboxylic acid]

inhibition at 1 µM [1]: 0 to 25%
inhibition at 1 µM [2]: > 75%
inhibition at 1 µM [3]: 0 to 25%
inhibition at 1 µM [4]: > 75%
Structure (SMILES): O=C(O)c1ccn(C(=O)N2CCN(Cc3ccc(C(F)(F)F)cc3N3CCN4CCC[C@H]4C3)CC2)n1 [Example 49, (S)-1-(4-(2-(hexahydropyrrolo [1,2-a]pyrazin-2(1H)-yl)-4-(trifluoromethyl)benzyl)piperazine-1-carbonyl)-1H-pyrazole-3-carboxylic acid]

inhibition at 1 µM [1]: 0 to 25%
inhibition at 1 µM [3]: 0 to 25%
Structure (SMILES): C[C@@H]1CC[C@H](C)N1c1cc(C(F)(F)F)ccc1CN(C)C1(C)CCN(C(=O)n2ccc(C(=O)O)n2)CC1 [Example 160, 1-(4-((2-((2R,5S)-2,5-dimethylpyrrolidin-1-yl)-4-(trifluoromethyl)benzyl)(methyl)amino)-4-methylpiperidine-1-carbonyl)-1H-pyrazole-3-carboxylic acid]

More lines, now with the values behind:

Structure (SMILES): O=C(O)c1ccn(C(=O)N2CCN(Cc3ccc(Cl)cc3)CC2)n1 [Example 1, 1-(4-(4-chlorobenzyl)piperazine-1-carbonyl)-1H-pyrazole-3-carboxylic Acid]
inhibition at 10 µM ([1]; read-out: FAAH % inh. (human) at 10 uM): > 75%
inhibition at 1 µM [2]: 50 to 75%
inhibition at 1 µM [3]: 0 to 25%
inhibition at 1 µM [4]: 25 to 50%

Structure (SMILES): O=C(O)c1ccn(C(=O)N2CCN(Cc3ccc(C(F)(F)F)cc3-c3nnn[nH]3)CC2)n1 [Example 5, 1-(4-(2-(1H-Tetrazol-5-yl)-4-(trifluoromethyl)benzyl)piperazine-1-carbonyl)-1H-pyrazole-3-carboxylic Acid]
inhibition at 1 µM [1]: 0 to 25%
inhibition at 1 µM [2]: 50 to 75%
inhibition at 1 µM [3]: 0 to 25%
inhibition at 1 µM [4]: > 75%

Structure (SMILES): O=C(O)c1ccn(C(=O)N2CCN(Cc3ccc(C(F)(F)F)c(-c4nnco4)c3)CC2)n1 [Example 9, 1-(4-(3-(1,3,4-oxadiazol-2-yl)-4-(trifluoromethyl)benzyl)piperazine-1-carbonyl)-1H-pyrazole-3-carboxylic Acid]
inhibition at 1 µM [1]: 0 to 25%
inhibition at 1 µM [2]: > 75%
inhibition at 1 µM [3]: 0 to 25%
inhibition at 1 µM [4]: > 75%

Structure (SMILES): NC(=O)c1ccc(CN2CCN(C(=O)n3ccc(C(=O)O)n3)CC2)cc1C(F)(F)F [Example 14, 1-(4-(4-Carbamoyl-3-(trifluoromethyl)benzyl)piperazine-1-carbonyl)-1H-pyrazole-3-carboxylic Acid]
inhibition at 1 µM [1]: 0 to 25%
inhibition at 1 µM [2]: 25 to 50%
inhibition at 1 µM [3]: 0 to 25%
inhibition at 1 µM [4]: 25 to 50%

Structure (SMILES): Cc1cc(-c2ccccc2)ccc1CN1CCN(C(=O)n2ccc(C(=O)O)n2)CC1 [Example 16, 1-(4-((3-Methyl-[1,1′-biphenyl]-4-yl)methyl)piperazine-1-carbonyl)-1H-pyrazole-3-carboxylic Acid]
IC50 [1]: 1000 to 10000 nM
inhibition at 1 µM [1]: 0 to 25%
inhibition at 1 µM [2]: > 75%
inhibition at 1 µM [3]: 50 to 75%
inhibition at 1 µM [4]: > 75%

Structure (SMILES): O=C(O)c1ccn(C(=O)N2CCN(Cc3cccc(Oc4cccnc4)c3)CC2)n1 [Example 18, 1-(4-(3-(Pyridin-3-yloxy)benzyl)piperazine-1-carbonyl)-1H-pyrazole-3-carboxylic Acid]
inhibition at 1 µM [1]: 0 to 25%
inhibition at 1 µM [2]: 25 to 50%
inhibition at 1 µM [3]: 0 to 25%
inhibition at 1 µM [4]: 50 to 75%

Structure (SMILES): O=C(O)c1ccn(C(=O)N2C[C@H]3C[C@@H](OCc4ccccc4Cl)C[C@H]3C2)n1 [Example 41, 1-(cis-5-((2-chlorobenzyl)oxy)octahydrocyclo-penta[c]pyrrole-2-carbonyl)-1H-pyrazole-3-carboxylic acid]
inhibition at 1 µM [1]: > 75%
inhibition at 1 µM [2]: 0 to 25%
inhibition at 1 µM [3]: 0 to 25%
inhibition at 1 µM [4]: > 75%
